This note sets out measurements from patent publication US20240132479A1, “THERAPEUTIC COMPOUNDS AND USES THEREOF” (Board of Trustees of Michigan State University, priority 2021, published 2024).

In brackets after ≈: the same amount, converted by molar mass. Read-outs that look alike come from different tables or passages of the source.

The test system of series [1] is Mtb H37Rv. In words: MIC determination in microdilution assay, Mtb H37Rv. Format: cell-based. Conditions: Mycobacterium tuberculosis.
Series [2] relates to M. avium (ATCC 700891 MAC 101). Nature of the series: MIC determination in microdilution assay, M. avium. The class given is cell-based. The settings on record: Mycobacterium avium, ATCC700891.
Series [3] has as its system M. abscessus (ATCC 19977). In words: MIC determination in microdilution assay, M. abscessus. Format: cell-based, Mycobacterium abscessus. Conditions: Mycobacteroides abscessus, ATCC19977; read-out: MIC M. abcessus 19977.
Series [4] in a line: in vitro. Format: cell-based. The settings on record: human. The protocol: (§1) The compounds of Examples 2, 21A, and 19 were tested for 1) for ex vivo efficacy and 2) cytotoxicity. Ex vivo efficacy was determined by inhibition of Mycobacterium tuberculosis (Mtb) H37Rv, Mycobacterium avium complex (ATCC 700891 MAC 101), and Mycobacterium abscessus (ATCC 19977). Cytotoxicity tests were carried out against three human cell lines, THP-1 (ATCC TIB-202), HepG2 (ATCC HB-8065), and HeLa (ATCC CCL-2), IC50 values were calculated from dose response curves to determine cytotoxicity of test compounds. […] Of the three compounds tested for ex vivo efficacy against NTM strains, there was no activity (>32 mg/L) against M. avium and one compound with activity against M. abscessus. […] These compounds were not cytotoxic (>128 mg/L) against HepG2 and HeLa cells. The compounds average therapeutic index for HepG2 was 12.4-48.3 and 96.7-389 for HeLa.

The subject of series [5] is Mycobacterium abscessus (ATCC 19977). Nature of the series: Ex vivo efficacy, M. abscessus. The class given is cell-based. How it is done: as §1
Series [6] relates to Mycobacterium avium complex (ATCC 700891 MAC 101). Nature of the series: Ex vivo efficacy, M. avium. Format: cell-based. How it is done:
as §1

Setting [7] is: HeLa cells, read-out: HeLa Cytotoxicity (IC50 μg/ml).
[8] abbreviates: HepG2 cells, read-out: HepG2 Cytotoxicity (IC50 μg/ml).
Setting [9] is: THP-1 cells, read-out: THP-1 Cytotoxicity (IC50 μg/ml).

As for `Cc1cc2nc(SCC(=O)N(C(C)C)C(C)C)[nH]c2cc1C` [Example 2, 2-[(5,6-dimethyl-1H-1,3-benzodiazol-2-yl)sulfanyl]-N,N-bis(propan-2-yl)acetamide], the melting point came to 172 °C. In series [1], this compound displayed an MIC of 0.5 µg/mL (≈ 1.57 µM). In series [2], the MIC was greater than 64 µg/mL. Besides, the MIC in series [3] came to 4 µg/mL (≈ 12.5 µM). Moreover, the IC50 in series [4] (setting [7]) is 4 µg/mL (≈ 12.5 µM). In series [4] (setting [8]), the IC50 was 0.5 µg/mL (≈ 1.57 µM). For the same compound, the IC50 in series [4] (setting [9]) was determined as 0.5 µg/mL (≈ 1.57 µM). In addition, the “M. abscessus ex vivo efficacy (>90% inhibition μg/ml)” value in series [5] turned out to be 0.25 µg/mL. For the same compound, the “M. avium ex vivo efficacy (>90% inhibition μg/ml)” value in series [6] was 0.5 µg/mL.

Take `CC(C)N(C(=O)CCc1nc2cc(Cl)c(Cl)cc2[nH]1)C(C)C` [Example 19]: the MIC in series [1] is no more than 0.125 µg/mL; in series [2], 8 µg/mL (≈ 23.4 µM); in series [3], 1 µg/mL (≈ 2.92 µM). Moreover, the IC50 in series [4] (setting [7]) is 1 µg/mL (≈ 2.92 µM); in series [4] (setting [8]), no more than 0.125 µg/mL; in series [4] (setting [9]), no more than 0.125 µg/mL. The “M. abscessus ex vivo efficacy (>90% inhibition μg/ml)” value in series [5] was no more than 0.125 µg/mL. Besides, in series [6], the “M. avium ex vivo efficacy (>90% inhibition μg/ml)” value was no more than 0.125 µg/mL.

As for `Cc1cc2nc(CCC(=O)N(C(C)C)C(C)C)[nH]c2cc1C` [Example 21A], the MIC was 0.25 µg/mL (≈ 0.829 µM) in series [1], 16 µg/mL (≈ 53.1 µM) in series [2] and 2 µg/mL (≈ 6.63 µM) in series [3]. The IC50 is 2 µg/mL (≈ 6.63 µM) in series [4] (setting [7]), no more than 0.125 µg/mL in series [4] (setting [8]) and no more than 0.125 µg/mL in series [4] (setting [9]). Also, the “M. abscessus ex vivo efficacy (>90% inhibition μg/ml)” value in series [5] worked out at 0.25 µg/mL. The “M. avium ex vivo efficacy (>90% inhibition μg/ml)” value in series [6] came to 0.25 µg/mL.
